According to PubChem BioAssay AID248 (DTP/NCI, 2004):
Where “and” joins values, the source holds several entries; their conditions need not be identical. Identical values can stand only once. Toxic doses and inconclusive results are not listed. Rule as the data show it: active = T/C of 150% or more; inactive = T/C below 125%.

Test system: L1210 leukemia ip in BDF1 mice, survival T/C
Experiment: NCI In Vivo Anticancer Drug Screen. Data for tumor model L1210 Leukemia (intraperitoneal) in B6D2F1 (BDF1) mice
Conditions: endpoint: mean survival time, higher = longer survival
Summary of the method: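 Each compound was tested against a transplantable tumor grown in mice. The endpoint was survival, with treated animals benchmarked against vehicle controls as a simple ratio.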

[1] = dose: 100.0 mg/kg/injection, schedule: Q04DX002 (ip), vehicle: Klucel (hydroxypropylcellulose) (HPC)
[2] = dose: 200.0 mg/kg/injection, schedule: Q04DX002 (ip), vehicle: Klucel (hydroxypropylcellulose) (HPC)
[3] = dose: 400.0 mg/kg/injection, schedule: Q04DX002 (ip), vehicle: Klucel (hydroxypropylcellulose) (HPC)
[4] = dose: 25.0 mg/kg/injection, schedule: Q01DX009 (ip), vehicle: saline with Tween-80
[5] = dose: 50.0 mg/kg/injection, schedule: Q01DX009 (ip), vehicle: saline with Tween-80
[6] = dose: 100.0 mg/kg/injection, schedule: Q04DX003 (ip), vehicle: saline with Tween-80

Measured: T/C

OCCN1CCC(CCCC2CCN(CCO)CC2)CC1
inactive: dose: 10.0 mg/kg/injection, schedule: Q01DX Z (ip), vehicle: saline 94 % of control | dose: 30.0 mg/kg/injection, schedule: Q01DX Z (ip), vehicle: saline 92 % of control | dose: 100.0 mg/kg/injection, schedule: Q01DX Z (ip), vehicle: saline 94 % of control

CCO/C=C(/C(=O)OCC)C(=O)C(OCC)OCC
inactive: dose: 100.0 mg/kg/injection, schedule: Q01DX009 (ip), vehicle: saline 101 % of control | dose: 100.0 mg/kg/injection, schedule: Q04DX003 (ip), vehicle: saline 95 % of control | dose: 200.0 mg/kg/injection, schedule: Q01DX009 (ip), vehicle: saline 101 % of control | dose: 200.0 mg/kg/injection, schedule: Q04DX003 (ip), vehicle: saline 97 % of control | dose: 400.0 mg/kg/injection, schedule: Q01DX009 (ip), vehicle: saline 98 % of control | dose: 400.0 mg/kg/injection, schedule: Q04DX003 (ip), vehicle: saline 94 % of control

CCNC(C)(C)C(SSS)c1ccco1 (stereo unspecified)
inactive: dose: 12.5 mg/kg/injection, schedule: Q01DX009 (ip), vehicle: gum acacia 90 % of control | dose: 25.0 mg/kg/injection, schedule: Q01DX009 (ip), vehicle: gum acacia 88 % of control | dose: 50.0 mg/kg/injection, schedule: Q01DX009 (ip), vehicle: gum acacia 90 % of control | dose: 100.0 mg/kg/injection, schedule: Q04DX003 (ip), vehicle: gum acacia 95 % of control | dose: 200.0 mg/kg/injection, schedule: Q04DX003 (ip), vehicle: gum acacia 95 % of control | dose: 400.0 mg/kg/injection, schedule: Q04DX003 (ip), vehicle: gum acacia 107 % of control

O=C(O)CNC(=O)C(CSCc1ccccc1)NC(=O)OCc1ccccc1 (stereo unspecified)
inactive: dose: 100.0 mg/kg/injection, schedule: Q04DX003 (ip), vehicle: Klucel (hydroxypropylcellulose) (HPC) 97 % of control | dose: 400.0 mg/kg/injection, schedule: Q04DX003 (ip), vehicle: Klucel (hydroxypropylcellulose) (HPC) 86 % of control

CCCNC(=O)Oc1ccc2ccccc2c1
inactive: dose: 100.0 mg/kg/injection, schedule: Q01DX001 (ip), vehicle: other 103 % of control | dose: 100.0 mg/kg/injection, schedule: Q01DX009 (ip), vehicle: other 93 % of control and 100 % of control | [1] 95 % of control | dose: 100.0 mg/kg/injection, schedule: Q04DX002 (ip), vehicle: other 100 % of control and 101 % of control | dose: 200.0 mg/kg/injection, schedule: Q01DX001 (ip), vehicle: other 94 % of control | dose: 200.0 mg/kg/injection, schedule: Q01DX009 (ip), vehicle: other 94 % of control and 116 % of control | [2] 103 % of control | dose: 200.0 mg/kg/injection, schedule: Q04DX002 (ip), vehicle: other 93 % of control and 95 % of control | dose: 400.0 mg/kg/injection, schedule: Q01DX001 (ip), vehicle: other 101 % of control | dose: 400.0 mg/kg/injection, schedule: Q01DX009 (ip), vehicle: other 93 % of control and 94 % of control | [3] 100 % of control | dose: 400.0 mg/kg/injection, schedule: Q04DX002 (ip), vehicle: other 93 % of control and 96 % of control

CC(C)(C)S(=O)(=O)CCCl
inactive: dose: 75.0 mg/kg/injection, schedule: Q01DX009 (ip), vehicle: Klucel (hydroxypropylcellulose) (HPC) 93 % of control | dose: 100.0 mg/kg/injection, schedule: Q01DX005 (ip), vehicle: Klucel (hydroxypropylcellulose) (HPC) 96 % of control | [1] 88 % of control | dose: 150.0 mg/kg/injection, schedule: Q01DX009 (ip), vehicle: Klucel (hydroxypropylcellulose) (HPC) 93 % of control | dose: 200.0 mg/kg/injection, schedule: Q01DX005 (ip), vehicle: Klucel (hydroxypropylcellulose) (HPC) 100 % of control | [2] 100 % of control | dose: 300.0 mg/kg/injection, schedule: Q01DX009 (ip), vehicle: Klucel (hydroxypropylcellulose) (HPC) 96 % of control | dose: 400.0 mg/kg/injection, schedule: Q01DX005 (ip), vehicle: Klucel (hydroxypropylcellulose) (HPC) 100 % of control | [3] 100 % of control

CC(=O)Cc1ccc(Cl)cc1
inactive: dose: 100.0 mg/kg/injection, schedule: Q04DX002 (ip), vehicle: saline 92 % of control | dose: 200.0 mg/kg/injection, schedule: Q04DX002 (ip), vehicle: saline 95 % of control | dose: 400.0 mg/kg/injection, schedule: Q04DX002 (ip), vehicle: saline 99 % of control

COc1cc2cc[n+](C)c(Cc3ccccc3)c2cc1OC
inactive: [4] 111 % of control | dose: 25.0 mg/kg/injection, schedule: Q04DX003 (ip), vehicle: saline with Tween-80 105 % of control | [5] 107 % of control | dose: 50.0 mg/kg/injection, schedule: Q04DX003 (ip), vehicle: saline with Tween-80 103 % of control | [6] 96 % of control

O=C1C=CC(=O)N1c1ccc(Cl)cc1Br
inactive: dose: 5.0 mg/kg/injection, schedule: Q01DX009 (ip), vehicle: saline with Tween-80 91 % of control | dose: 10.0 mg/kg/injection, schedule: Q01DX009 (ip), vehicle: saline with Tween-80 91 % of control | dose: 20.0 mg/kg/injection, schedule: Q01DX009 (ip), vehicle: saline with Tween-80 91 % of control

NCCSc1ccccc1
inactive: dose: 25.0 mg/kg/injection, schedule: Q04DX002 (ip), vehicle: saline with Tween-80 92 % of control | dose: 50.0 mg/kg/injection, schedule: Q04DX002 (ip), vehicle: saline with Tween-80 101 % of control | dose: 100.0 mg/kg/injection, schedule: Q04DX002 (ip), vehicle: saline with Tween-80 96 % of control and 114 % of control

CCOc1ccccc1/C=N/N1CCN(/N=C/c2ccccc2OCC)CC1
inactive: dose: 100.0 mg/kg/injection, schedule: Q01DX001 (ip), vehicle: saline 100 % of control | dose: 200.0 mg/kg/injection, schedule: Q01DX001 (ip), vehicle: saline 90 % of control | dose: 400.0 mg/kg/injection, schedule: Q01DX001 (ip), vehicle: saline 90 % of control

O=C(Nc1ncccn1)Nc1ccccc1C(F)(F)F
inactive: dose: 100.0 mg/kg/injection, schedule: Q01DX009 (ip), vehicle: gum acacia 88 % of control | dose: 200.0 mg/kg/injection, schedule: Q01DX009 (ip), vehicle: gum acacia 86 % of control | dose: 400.0 mg/kg/injection, schedule: Q01DX009 (ip), vehicle: gum acacia 88 % of control

CCOC(=O)CCN(C(=S)Nc1ccccc1)C1CCCCC1
inactive: dose: 100.0 mg/kg/injection, schedule: Q01DX Z (ip), vehicle: methylcellulose (MC) 94 % of control | dose: 200.0 mg/kg/injection, schedule: Q01DX Z (ip), vehicle: methylcellulose (MC) 92 % of control

Nc1ncnc2c1ncn2C1CC(COP(=O)(O)O)C(O)C1O (stereo unspecified)
inactive: dose: 37.0 mg/kg/injection, schedule: Q04DX003 (ip), vehicle: saline 105 % of control | dose: 75.0 mg/kg/injection, schedule: Q01DX001 (ip), vehicle: saline 107 % of control | dose: 75.0 mg/kg/injection, schedule: Q04DX003 (ip), vehicle: saline 110 % of control | dose: 150.0 mg/kg/injection, schedule: Q01DX001 (ip), vehicle: saline 87 % of control | dose: 150.0 mg/kg/injection, schedule: Q04DX003 (ip), vehicle: saline 100 % of control

NC(=O)/C=C/C(N)=O
inactive: [4] 91 % of control | [5] 88 % of control | dose: 100.0 mg/kg/injection, schedule: Q01DX009 (ip), vehicle: saline with Tween-80 88 % of control | [6] 89 % of control | dose: 200.0 mg/kg/injection, schedule: Q04DX003 (ip), vehicle: saline with Tween-80 94 % of control | dose: 400.0 mg/kg/injection, schedule: Q04DX003 (ip), vehicle: saline with Tween-80 92 % of control
